Source: patent US8569298B2, “Pyridine compounds” (Astrazeneca AB, priority 2008, dated 2013)

Target: T1, FAK enzyme (6 His tagged kinase domain, GenBank NP—722560) (Homo sapiens, UniProt Q05397)
T1 construct: 6 His; made in house; host or cells: insect cell culture infected with baculovirus
Experiment: In vitro enzyme assay (a): sandwich ELISA of FAK tyrosine kinase activity on polyGAT peptide, TMB colorimetric endpoint
Type: biochemical
Settings: in vitro Enzyme Assay test (a); ATP at Km; geometric mean of n > 1 measurements, values marked * tested once
Method: (a) In Vitro Enzyme Assay
A sandwich ELISA assay with a 3,3′,5,5′-tetramethyl benzidine (TMB) colorimetric endpoint was used in order to determine the level of effect of selected compounds on inhibition of FAK protein tyrosine kinase enzyme activity. A synthetic tyrosine containing peptide is coated onto a plastic surface, the level of phosphorylation of these tyrosine residues by the kinase enzyme in the presence of inhibitors is measured using an antibody that binds specifically to phosphorylated tyrosine residues. The amount of antibody bound to substrate is proportional to the level of enzyme catalysis.
Assay Protocol to Identify Inhibitors of Focal Adhesion Kinase (FAK).
A PlateMate Plus™ 384 automated liquid handling unit with a 100 μl disposable tip head was used to make all the non compound reagent additions and a Tecan 384PW plate washer with 384 head was used for all wash steps. Initially Matrix 384 well polystyrene plates (Cat #:4311) were coated with 40 μl/well of a 0.0375 mg/ml solution of synthetic poly peptide (polyGAT, Sigma Cat #:P3899) dissolved in phosphate buffered saline (PBS). Plates were stored overnight at 4° C. Immediately before use the coating solution was aspirated out and each well washed with 2×100 μl of PBS+0.05% Tween 20. To remove surplus phosphate, the wells were then washed with 2×100 μl 50 mM HEPES buffer pH 7.4. Plates were blotted dry before the addition of compounds. Compounds were tested over a 12 point dose range, a Labcyte Echo 550 was used to dispense compounds in nl volumes and back fill with DMSO. The final concentration of compound in the assay was dependent on the starting concentration of compound. For a 10 mM stock compound the final assay dose ranged from 100 μM down to […]. Control wells containing 120 nl DMSO (Max) or 120 nl of 10 mM staurosporine (LC Laboratories, Boston, USA Cat #: S-9300) (Min) were included in each plate. 10 ul of 5% dimethyl sulfoxide v/v (DMSO, Fisher Scientific) was added to each well immediately prior to addition of 10 μl of a co-factor solution containing 80 mM MgCl2 (Sigma Cat #: M1028); 80 mM MnCl2 (Sigma Cat #: M1787); ATP at a concentration calculated to enable the initial reaction velocity to progress at half the maximum velocity (Km for ATP) (Sigma Cat #:A7699). A final addition of 20 μl of enzyme solution containing 100 mM HEPES pH7.4; 0.2 mM sodium vanadate (Sigma Cat #:S6508); 0.2 g/l bovine serum albumin (BSA, Sigma Cat #: A7888); 0.2 mM dithioreitol (Sigma Cat #: 5545); 0.1% Triton X100 (Sigma Cat #:X100); FAK enzyme (20 μl/ml) was made to each well to start the assay running FAK enzyme was generated from an insect culture infected with baculo virus containing the DNA sequence encoding the 6 His tagged kinase domain (GenBank NP_722560).
Plates were left at room temperature for 25 minutes before 10 μl of 500 mM ethylenediaminetetraacetic acid (EDTA) was added to stop the assay and the wells were immediately washed 3×100 μl with PBS+0.05% Tween 20. A 4G10 antibody (Millipore Cat #: 16-105; 16-184) with a directly conjugated horse radish peroxidase (HRP) was used to detect the phosphorylation of the substrate by the FAK. 40 μl of PBS+0.05% Tween 20 containing 0.5% BSA and 0.1 μl/ml antibody was added to each well and left for 1 hour at room temperature to allow the antibody to bind. After this period the wells were again washed with 3×100 μl of PBS+0.05% Tween 20. TMB (Sigma Cat #: T2885) was used as a substrate for the HRP. Phosphate-citrate buffer was made up using capsules provided by Sigma (Cat #: P4922) following the manufacturers guidelines. TMB was dissolved at a concentration of 1 mg/ml in DMSO and let down to a final concentration of 0.05 mg/ml with the phosphor-citrate buffer. 40 μl of the TMB solution was added to each assay well and left for 30 minutes for the blue colour to develop. […]

T1 sequence (Q05397 422-680 limits assumed): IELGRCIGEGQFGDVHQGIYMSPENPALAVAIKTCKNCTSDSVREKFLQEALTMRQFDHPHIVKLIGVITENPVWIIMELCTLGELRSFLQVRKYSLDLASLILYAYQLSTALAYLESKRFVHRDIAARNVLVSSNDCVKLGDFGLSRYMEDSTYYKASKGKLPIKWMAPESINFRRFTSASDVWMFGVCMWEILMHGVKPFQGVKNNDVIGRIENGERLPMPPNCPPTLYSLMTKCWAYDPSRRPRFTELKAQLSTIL

Row | SMILES | IC50 [nM]
1 | CNC(=O)c1ccccc1Nc1cc(Nc2cnn(CC(=O)N3CCCN(C)CC3)c2)ncc1Cl [Example 3.04, 2-[[5-chloro-2-[[1-[2-(4-methyl-1,4-diazepan-1-yl)-2-oxo-ethyl]pyrazol-4-yl]amino]-4-pyridyl]amino]-N-methyl-benzamide] | 68
2 | CNC(=O)c1ccccc1Nc1cc(Nc2cnn(CC(=O)N3CCOCC3)c2)ncc1Cl [Example 3.05, 2-[[5-chloro-2-[[1-(2-morpholino-2-oxo-ethyl)prazol-4-yl]amino]-4-pyridyl]amino]-N-methyl-benzamide] | 90
3 | CNC(=O)c1ccccc1Nc1cc(Nc2cnn(CC(=O)N(C)CCOC)c2)ncc1Cl [Example 3.06, 2-[[5-chloro-2-[[1-[2-(2-methoxyethyl-methyl-amino)-2-oxo-ethyl]pyrazol-4-yl]amino]-4-pyridyl]amino]-N-methyl-benzamide] | 99
4 | CNC(=O)c1ccccc1Nc1cc(Nc2cnn(C)c2)ncc1Cl [Example 3.11, 2-[[5-chloro-2-[(1-methylpyrazol-4-yl)amino]-4-pyridyl]amino]-N-methyl-benzamide] | 439
5 | CNC(=O)c1ccccc1Nc1cc(Nc2cnn(C3CCN(C)CC3)c2)ncc1Cl [Example 3.12, 2-[[5-chloro-2-[[1-(1-methyl-4-piperidyl)pyrazol-4-yl]amino]-4-pyridyl]amino]-N-methyl-benzamide] | 195
6 | CNC(=O)c1ccccc1Nc1cc(Nc2cnn(C3CCN(C(C)=O)CC3)c2)ncc1Cl [Example 3.13, 2-[(2-[[1-(1-acetyl-4-piperidyl)pyrazol-4-yl]amino]-5-chloro-4-pyridyl]amino]-N-methyl-benzamide] | 128
7 | CNC(=O)c1ccccc1Nc1cc(Nc2cnn(C3CCOCC3)c2)ncc1Cl [Example 3.15, 2-[[5-chloro-2-[(1-tetrahydropyran-4-ylpyrazol-4-yl)amino]-4-pyridyl]amino]-N-methyl-benzamide] | 670
8 | CNC(=O)c1ccccc1Nc1cc(Nc2cc(C)[nH]n2)ncc1Cl [Example 3.16, 2-[[5-Chloro-2-[(5-methyl-1H-pyrazol-3-yl)amino]pyridin-4-yl]amino]-N-methylbenzamide] | 93
9 | CNC(=O)c1ccccc1Nc1cc(Nc2cc(C3CC3)[nH]n2)ncc1Cl [Example 3.17, 2-[[5-chloro-2-[(5-cyclopropyl-1H-pyrazol-3-yl)amino]-4-pyridyl]amino]-N-methyl-benzamide] | 93
10 | CNC(=O)c1ccccc1Nc1cc(Nc2cn(C)cn2)ncc1Cl [Example 3.18, 2-[[5-chloro-2-[(1-methylimidazol-4-yl)amino]-4-pyridyl]amino]-N-methyl-benzamide] | 275
11 | CNC(=O)c1ccccc1Nc1cc(Nc2cnn(C3CCNCC3)c2)ncc1Cl [Example 3.19, 2-[[5-Chloro-2-[[1-(4-piperidyl)pyrazol-4-yl]amino]-4-pyridyl]amino]-N-methyl-benzamide] | 686
12 | CON(C)C(=O)c1ccccc1Nc1cc(Nc2cnn(C3CCN(C)CC3)c2)ncc1Cl [Example 3.20, 2-[[5-Chloro-2-[[1-(1-methyl-4-piperidyl)pyrazol-4-yl]amino]-4-pyridyl]amino]-N-methoxy-N-methyl-benzamide] | 1230
13 | CON(C)C(=O)c1ccccc1Nc1cc(Nc2cn(C)nc2C)ncc1Cl [Example 3.21, 2-[[5-chloro-2-[(1,3-dimethylpyrazol-4-yl)amino]-4-pyridyl]amino]-N-methoxy-N-methyl-benzamide] | 324
14 | CN1CCC(n2cc(Nc3cc(Nc4cccc5c4C(=O)N(C)CC5)c(Cl)cn3)cn2)CC1 [Example 3.29, 8-[[5-chloro-2-[[1-(1-methyl-4-piperidyl)pyrazol-4-yl]amino]-4-pyridyl]amino]-2-methyl-3,4-dihydroisoquinolin-1-one] | 118

The next compounds have a lower IC50 than those just listed; values first:

Row | IC50 [nM] | SMILES
15 | 48 | CNC(=O)c1ccccc1Nc1cc(Nc2cnn(CC(=O)N3CCN(C)CC3)c2)ncc1Cl [Example 3.07, 2-[[5-chloro-2-[[1-[2-(4-methylpiperazin-1-yl)-2-oxo-ethyl]pyrazol-4-yl]amino]-4-pyridyl]amino]-N-methyl-benzamide]
16 | 60 | CNC(=O)c1ccccc1Nc1cc(Nc2cc(OC)nn2C)ncc1Cl [Example 3.08, 2-[[5-Chloro-2-[(5-methoxy-2-methylpyrazol-3-yl)amino]pyridin-4-yl]amino]-N-methylbenzamide]
17 | 29 | CNC(=O)c1ccccc1Nc1cc(Nc2cc(C)nn2C)ncc1Cl [Example 3.09, 2-[[5-chloro-2-[(2,5-dimethylpyrazol-3-yl)amino]-4-pyridyl]amino]-N-methyl-benzamide]
18 | 45 | CNC(=O)c1ccccc1Nc1cc(Nc2cc(C)n(C)n2)ncc1Cl [Example 3.10, 2-[[5-chloro-2-[(1,5-dimethylpyrazol-3-yl)amino]-4-pyridyl]amino]-N-methyl-benzamide]
19 | 45 | CNC(=O)c1ccccc1Nc1cc(Nc2cn(C)nc2C)ncc1Cl [Example 3.14, 2-[[5-chloro-2-[(1,3-dimethylpyrazol-4-yl)amino]-4-pyridyl]amino]-N-methyl-benzamide]
20 | 25 | Cc1nn(C)cc1Nc1cc(Nc2cccc3c2C(=O)N(C)CCO3)c(Cl)cn1 [Example 3.22, 6-[[5-Chloro-2-[(1,3-dimethylpyrazol-4-yl)amino]-4-pyridyl]amino]-4-methyl-2,3-dihydro-1,4-benzoxazepin-5-one]
21 | 20 | CN1CCc2cccc(Nc3cc(Nc4cnn(CC(=O)N5CCCC5)c4)ncc3Cl)c2C1=O [Example 3.23, 8-[[5-Chloro-2-[[1-(2-oxo-2-pyrrolidin-1-yl-ethyl)pyrazol-4-yl]amino]-4-pyridyl]amino]-2-methyl-3,4-dihydroisoquinolin-1-one]
22 | 18 | COCCNC(=O)Cn1cc(Nc2cc(Nc3cccc4c3C(=O)N(C)CC4)c(Cl)cn2)cn1 [Example 3.24, 2-[4-[[5-chloro-4-[(2-methyl-1-oxo-3,4-dihydroisoquinolin-8-yl)amino]-2-pyridyl]amino]pyrazol-1-yl]-N-(2-methoxyethyl)acetamide]
23 | 27 | COCCN(C)C(=O)Cn1cc(Nc2cc(Nc3cccc4c3C(=O)N(C)CC4)c(Cl)cn2)cn1 [Example 3.25, 2-[4-[[5-chloro-4-[(2-methyl-1-oxo-3,4-dihydroisoquinolin-8-yl)amino]-2-pyridyl]amino]pyrazol-1-yl]-N-(2-methoxyethyl)-N-methyl-acetamide]
24 | 38 | CN(C)CCNC(=O)Cn1cc(Nc2cc(Nc3cccc4c3C(=O)N(C)CC4)c(Cl)cn2)cn1 [Example 3.26, 2-[4-[[5-chloro-4-[(2-methyl-1-oxo-3,4-dihydroisoquinolin-8-yl)amino]-2-pyridyl]amino]pyrazol-1-yl]-N-(2-dimethylaminoethyl)acetamide]
25 | 11 | CN1CCc2cccc(Nc3cc(Nc4cnn(CC(=O)N5CCOCC5)c4)ncc3Cl)c2C1=O [Example 3.27, 8-[[5-chloro-2-[[1-(2-morpholino-2-oxo-ethyl)pyrazol-4-yl]amino]-4-pyridyl]amino]-2-methyl-3,4-dihydroisoquinolin-1-one]
26 | 41 | CN1CCc2cccc(Nc3cc(Nc4cnn(C)c4)ncc3Cl)c2C1=O [Example 3.28, 8-[[5-Chloro-2-[(1-methylpyrazol-4-yl)amino]-4-pyridyl]amino]-2-methyl-3,4-dihydroisoquinolin-1-one]
